Experimental data from patent EP0178503A1, “Butenyl derivatives, process for their preparation and medicines containing them” (LUDWIG HEUMANN & CO GMBH, priority 1984, dated 1986).

Target: T1, Histamin-H2-Rezeptoren (Cavia porcellus, UniProt P47747)
T1 construct: Kontraktionsfrequenz des isolierten rechten Atriums des Meerschweinchens; from tissue; host or cells: isolated guinea pig (right) atrium
Assay: pA2 determination in vitro on guinea pig atrium (method of Ariens)
Type: biochemical, Meerschweinchen
Details: Meerschweinchenvorhof, H2-antagonistic activity, Molec. Pharmac., Band 1 (1964)
Description: Die pharmakologische Aktivität dieser Verbindungen kann nach einer modifizierten Methode gemäß der DE OS 2734070 beim perfundierten Rattenmagen gezeigt werden oder durch die Ermittlung der pA2-Werte in vitro am Meerschweinchenvorhof (vergleiche Ariens, Molec. Pharmac., Band 1, Academic Press, New York, 1964) nachgewiesen werden.

T1 sequence (P47747 whole entry): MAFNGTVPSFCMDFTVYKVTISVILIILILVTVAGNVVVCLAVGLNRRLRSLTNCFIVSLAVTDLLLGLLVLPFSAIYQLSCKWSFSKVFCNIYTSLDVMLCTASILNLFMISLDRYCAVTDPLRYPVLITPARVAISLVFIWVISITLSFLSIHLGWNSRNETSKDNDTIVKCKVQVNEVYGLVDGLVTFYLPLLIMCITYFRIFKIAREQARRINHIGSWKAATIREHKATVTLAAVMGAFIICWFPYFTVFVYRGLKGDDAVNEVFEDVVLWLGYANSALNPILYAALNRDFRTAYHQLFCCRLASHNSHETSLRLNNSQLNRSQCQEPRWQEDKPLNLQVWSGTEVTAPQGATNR

**Q.** How did the Kb turn out when `CNC(=C[N+](=O)[O-])NCC=CCOc1cccc(CN2CCCCC2)c1` [Beispiel 4, 1-Methylamino-1-[4-[3-(piperidinomethyl)phenoxy]but-2-enyl] amino-2-nitro-ethylen] was run?
**A.** 31.6 nM
